In assay [1] the target is Fibrinogen binding to human thrombocytes. The experiment in a line: Fibrinogen binding to human thrombocytes. To be noted: 125I fibrinogen; gel-filtered human platelets; ADP; 20 minutes at ambient temperature; read-out: Fibrinogen binding test IC50. As to the method: Fibrinogen binding to human thrombocytes The blood obtained by puncturing an antecubital vein is anticoagulated with trisodium citrate (final concentration: 13 mM) and centrifuged for 10 minutes at 170 xg. The supernatant platelet-rich plasma is poured onto a Sepharose 2B column (Pharmacia) and eluted with a solution of 90 mM common salt, 14 mM trisodium citrate, 5 mM glucose and 50 mM Tris(hydroxymethyl)aminomethane, adjusted to pH 7.4. The gel-filtered platelets (GFP) appearing before the plasma proteins are used for the binding experiments. 50 μl of a 60 mM calcium chloride solution, 50 μl of a 0.6 mM adenosine diphosphate solution, 100 μl of substance solution or solvent and 50 μl of fibrinogen solution (containing 3 μg of ^125 I fibrinogen) are added to 750 μl of GFP and incubated for 20 minutes at ambient temperature. The non-specific binding is determined in the presence of 3 mg/ml of cold fibrinogen. 900 μl of the incubated material are carefully pipetted onto 250 μl of silicon oil (AP 38: AR 20, 1:2 v/v, Wacker Chemie) in Eppendorf tubes and centrifuged for 2 minutes at 10,000 xg. The aqueous supernatant and some of the oil are drawn off, the tips of the tubes are cut off together with the platelet pellet and the quantity of bound fibrinogen is determined in a gamma counter. The concentration of substance which brings about a 50% inhibition in fibrinogen binding is determined from a series of concentrations and is given as the IC50 value.

Assay [2] concerns thrombocyte (platelet) aggregation. Kind of assay: Antithrombotic activity: collagen-induced thrombocyte aggregation in platelet rich plasma (Born and Cross). Format: cell-based. To be noted: Homo sapiens, platelet rich plasma from healthy test subjects, 10 minutes at 37° C. preincubation, 50% change in optical density, read-out: Inhibition of platelet aggregation EC50. The protocol:
2. Antithrombotic activity Method: Thrombocyte aggregation is measured in platelet rich plasma from healthy test subjects using the Born and Cross method (J. Physiol. 170, 397 (1964)). In order to inhibit coagulation the blood is mixed with sodium citrate 3.14% in a ratio by volume of 1:10. Collagen-induced aggregation: The course of the decrease in optical density of the platelet suspension is photometrically measured and recorded after the addition of the substance which triggers aggregation. The rate of aggregation is deduced from the gradient angle of the density curve. The point on the curve where there is maximum transmittance is used to calculate the optical density. The quantity of collagen used is as little as possible but sufficient to give an irreversible reaction curve. Standard commercial collagen produced by Hormonchemie of Munich is used. Before the addition of the collagen the plasma is incubated for 10 minutes at 37° C. with the substance. From the measurements obtained, an EC50 is determined graphically, relating to a 50% change in optical density in terms of the inhibition of aggregation.

Structures are written as SMILES. Where a name gives a salt, the structure may show the parent alone.

By IC50 is commonly meant the concentration that gives 50% inhibition. Broadly, the EC50 is the concentration that produces a half-maximal response.

On to `N=C(N)c1ccc(-c2ccc(OCCCC(=O)O)cc2)cc1` [2(1), 4-amidino-4'-(3-carboxypropyloxy)biphenyl], for which, in assay [1], the IC50 was more than 10 µM. Also, the EC50 in assay [2] was 56 µM.

Consider `N=C(N)c1ccc(-c2ccc(CC(=O)N3CCCC(CC(=O)O)C3)cc2)cc1` (centres unmarked) [1(47), 4-amidino-4'-[(3-carboxymethylpiperidino)-carbonylmethyl]biphenyl hydrochloride], for which, in assay [1], the IC50 amounted to 0.47 µM. Further, in assay [2], the EC50 amounted to 2.7 µM.

With `CN(C(=O)c1ccc(-c2ccc(C(=N)N)cc2)cc1)C1CCC(C(=O)O)CC1` (centres unmarked) [1(94), 4-amidino-4'-[N-(4-carboxycyclohexyl)-N-methyl-aminocarbonyl]biphenyl], the EC50 in assay [2] was determined as 0.04 µM.

Consider `COC(=O)CC1CCN(C(=O)c2ccc(-c3ccc(C(=N)N)cc3)cc2)CC1` [6(50), 4-amidino-4'-[(4-methoxycarbonylmethylpiperidino)-carbonyl]biphenyl hydrochloride], for which the IC50 in assay [1] worked out at 0.34 µM. In assay [2], the EC50 is 0.89 µM.

Turning to `COC(=O)C1CCN(C(=O)Cc2ccc(-c3ccc(C(=N)N)cc3)cc2)CC1` [6(56), 4-amidino-4'-[(4-methoxycarbonylpiperidino)-carbonylmethyl]biphenyl hydrochloride], in assay [1], the IC50 was 5.9 µM. For the same molecule, in assay [2], the EC50 was found to be 4.9 µM.

In the case of `COC(=O)C1CCN(C(=O)c2ccc(-c3ccc(C(=N)N)cc3)cc2)CC1` [6(81), 4-amidino-4'-[(4-methoxycarbonylpiperidino)-carbonyl]biphenyl], the IC50 in assay [1] is 25 µM. Moreover, the EC50 in assay [2] amounted to 34 µM.

With `COC(=O)CCCOc1ccc(-c2ccc(C(=N)N)cc2)cc1` [6(8), 4-amidino-4'-(3-methoxycarbonylpropyloxy)biphenyl dihydrogencarbonate], the IC50 in assay [1] is 5.2 µM. Moreover, in assay [2], the EC50 came out at 3.4 µM.

Consider `COC(=O)C1CCCN(C(=O)COc2ccc(-c3ccc(C(=N)N)cc3)cc2)C1` (centres unmarked) [6(49), 4-amidino-4'-[[(3-methoxycarbonylpiperidino)-carbonyl]methyloxy]biphenyl hydrochloride], for which the IC50 in assay [1] was determined as 32 µM. Moreover, the EC50 in assay [2] was determined as 36 µM.

For `COC(=O)Cc1cccc(NC(=O)Cc2ccc(-c3ccc(C(=N)N)cc3)cc2)c1` [6(46), 4-amidino-4'-[[[3-(methoxycarbonylmethyl)phenyl]-aminocarbonyl]methyl]biphenyl hydrochloride], the IC50 in assay [1] was found to be 19 µM. In addition, the EC50 in assay [2] was 82 µM.

With `COC(=O)C1CCC(N(C)C(=O)c2ccc(-c3ccc(C(=N)N)cc3)cc2)CC1` (centres unmarked) [6(98), 4-amidino-4'-[N-(4-methoxycarbonylcyclohexyl)-N-methylaminocarbonyl]biphenyl hydrochloride], the EC50 in assay [2] was found to be 0.37 µM.

Consider `N=C(N)c1ccc(-c2ccc(OCC(=O)N3CCCC(C(=O)O)C3)cc2)cc1` (centres unmarked) [1(7), 4-amidino-4'-[[(3-carboxypiperidino)carbonyl]-methyloxy]biphenyl], for which the IC50 in assay [1] was determined as 1.9 µM. Further, in assay [2], the EC50 came to 3.8 µM.

With `COC(=O)CCN1CCN(C(=O)c2ccc(-c3ccc(C(=N)N)cc3)cc2)CC1` [6(75), 4-amidino-4'-[[(4-(2-methoxycarbonylethyl)-piperazino]carbonyl]biphenyldi hydrochloride], in assay [1], the half-maximal inhibitory concentration (IC50) is 27 µM. In addition, the EC50 in assay [2] is 3.2 µM.

Take `N=C(N)c1ccc(-c2ccc(OCC(=O)NCC(=O)O)cc2)cc1` [1(3), 4-amidino-4'-[[(carboxymethylamino)carbonyl]-methoxy]-biphenyl]: the IC50 in assay [1] amounted to 1.8 µM. Further, the EC50 in assay [2] was 13 µM.

In the case of `N=C(N)c1ccc(-c2ccc(CC(=O)Nc3cccc(CC(=O)O)c3)cc2)cc1` [1(5), 4-amidino-4'-[[(3-carboxymethylphenyl)-aminocarbonyl]methyl]biphenyl], in assay [1], the IC50 was determined as 65 µM. Also, the EC50 in assay [2] is more than 100 µM.

`COC(=O)CNC(=O)COc1ccc(-c2ccc(C(=N)N)cc2)cc1` [6(2), 4-amidino-4'-[[(4-methoxycarbonylmethyl)-aminocarbonyl]methyloxy]biphenyl hydrochloride]: the IC50 in assay [1] amounted to 14 µM. The EC50 in assay [2] is 40 µM.

Turning to `N=C(N)c1ccc(-c2ccc(OCCCCC(=O)O)cc2)cc1` [2(2), 4-amidino-4'-(4-carboxybutyloxy)biphenyl], in assay [1], the IC50 was 0.046 µM. The EC50 in assay [2] is 45 µM.

As to `N=C(N)c1ccc(-c2ccc(CC(=O)N3CCC(C(=O)O)CC3)cc2)cc1` [1(45), 4-amidino-4'-[(4-carboxypiperidino)-carbonylmethyl]biphenyl hydrochloride], the IC50 in assay [1] amounted to 0.22 µM. The EC50 in assay [2] came to 2 µM.

On to `N=C(N)c1ccc(-c2ccc(C(=O)NCCCC(=O)O)cc2)cc1` [1(2), 4-amidino-4'-[(3-carboxypropyl)aminocarbonyl]-biphenyl], for which the IC50 in assay [1] was 0.12 µM. For the same molecule, the EC50 in assay [2] stood at 7 µM.

Take `N=C(N)c1ccc(-c2ccc(C(=O)NC3CCC(C(=O)O)CC3)cc2)cc1` (centres unmarked) [1(80), 4-amidino-4'-[(4-carboxycyclohexyl)aminocarbonyl]-biphenyl hydrochloride]: the IC50 in assay [1] was found to be 0.031 µM. The EC50 in assay [2] amounted to 0.04 µM.

For the molecule `COC(=O)CCNC(=O)COc1ccc(-c2ccc(C(=N)N)cc2)cc1` [6(3), 4-amidino-4'-[[(2-methoxycarbonylethyl)-aminocarbonyl]methyloxy]biphenyl h ydrochloride], the IC50 in assay [1] came out at 18 µM. For the same molecule, in assay [2], the EC50 is 17 µM.

`N=C(N)c1ccc(-c2ccc(OCCCCCC(=O)O)cc2)cc1` [Example 2, 4-Amidino-4'-(5-carboxypentyloxy)biphenyl hydrochloride]: the IC50 in assay [1] is 0.21 µM. The EC50 in assay [2] turned out to be 10 µM.

Take `COC(=O)CC1CCCN(C(=O)c2ccc(-c3ccc(C(=N)N)cc3)cc2)C1` (centres unmarked) [6(52), 4-amidino-4'-[(3-methoxycarbonylmethylpiperidino)-carbonyl]biphenyl hydrochloride]: the IC50 in assay [1] amounted to 16 µM. Further, the EC50 in assay [2] came to 38 µM.

On to `N=C(N)c1ccc(-c2ccc(NS(=O)(=O)NCCC(=O)O)cc2)cc1` [1(69), 4-amidino-4'-[(2-carboxyethyl)aminosulphonyl-amino]biphenyl], for which the IC50 in assay [1] turned out to be 3.1 µM. Also, the EC50 in assay [2] was determined as 12 µM.

Take `N=C(N)c1ccc(-c2ccc(OCC(=O)N3CCC(C(=O)O)CC3)cc2)cc1` [1(6), 4-amidino-4'-[[(4-carboxypiperidino)carbonyl]-methyloxy]biphenyl]: the IC50 in assay [1] was determined as 0.33 µM. In addition, the EC50 in assay [2] was found to be 1.2 µM.

In the case of `COC(=O)CCCCOc1ccc(-c2ccc(C(=N)N)cc2)cc1` [6(9), 4-amidino-4'-(4-methoxycarbonylbutyloxy)biphenyl hydrochloride], the IC50 in assay [1] was determined as 0.97 µM. Also, the EC50 in assay [2] amounted to 1.3 µM.

As to `COC(=O)CN1CCN(C(=O)c2ccc(-c3ccc(C(=N)N)cc3)cc2)CC1` [6(74), 4-amidino-4'-[(4-methoxycarbonylmethylpiperazino)-carbonyl]biphenyl dihydrochloride], the IC50 in assay [1] was determined as 24 µM. The EC50 in assay [2] was found to be 3.2 µM.

`N=C(N)c1ccc(-c2ccc(C(=O)NCC(N)=O)cc2)cc1` [6(86), 4-amidino-4'-(aminocarbonylmethylaminocarbonyl)-biphenyl hydrochloride]: the IC50 in assay [1] is 5.7 µM. Moreover, the half-maximal effective concentration (EC50) in assay [2] was determined as 21 µM.

Take `N=C(N)c1ccc(-c2ccc(C(=O)N3CCCC(CC(=O)O)C3)cc2)cc1` (centres unmarked) [1(41), 4-amidino-4'-[(3-carboxymethylpiperidino)-carbonyl]biphenyl hydrochloride]: the IC50 in assay [1] worked out at 0.52 µM. Moreover, the EC50 in assay [2] is 2.6 µM.

Consider `COC(=O)CCCCCOc1ccc(-c2ccc(C(=N)N)cc2)cc1` [Example 6, Di-[4-Amidino-4'-(5-methoxycarbonylpentyloxy)biphenyl]dihydrogencarbonate], for which the IC50 in assay [1] came out at 0.57 µM. Besides, in assay [2], the EC50 came to 2.6 µM.

Consider `COc1ccc(CCNC(=O)C(CC(=O)O)NC(=O)CNC(=O)c2ccc(-c3ccc(C(=N)N)cc3)cc2)cc1` (centres unmarked) [Example 3, 4-Amidino-4'-[[[2-carboxy-1-[[2-(4-methoxyphenyl)-ethyl]aminocarbonyl]ethylamino]carbonylmethyl]-aminocarbonyl]biphenyl hydrochloride], for which the IC50 in assay [1] came out at 1.3 µM. For the same molecule, the EC50 in assay [2] came to 16 µM.

For `CCOC(=O)CC1CCN(C(=O)c2ccc(-c3ccc(C(=N)NC(=O)OCC)cc3)cc2)CC1` [8(7), 4-(N-ethoxycarbonylamidino)-4'-[(4-ethoxycarbonyl-methylpiperidino)carbonyl]biphenyl], in assay [2], the EC50 is more than 10 µM.
